From patent US9834542B2, “LXR modulators” (BRISTOL-MYERS SQUIBB COMPANY, priority 2013, dated 2017)

Biological target: T1, LXRβ (Homo sapiens, UniProt P55055)
T1 construct: Co-transfection expression plasmids, comprising full-length LXRα (pCMX-h LXRα[…] or LXRβ (pCMX-hLXRβ)); expressed in transfected cells; host or cells: CV-1 African Green Monkey Kidney Cells
T1 sequence (P55055 1-460): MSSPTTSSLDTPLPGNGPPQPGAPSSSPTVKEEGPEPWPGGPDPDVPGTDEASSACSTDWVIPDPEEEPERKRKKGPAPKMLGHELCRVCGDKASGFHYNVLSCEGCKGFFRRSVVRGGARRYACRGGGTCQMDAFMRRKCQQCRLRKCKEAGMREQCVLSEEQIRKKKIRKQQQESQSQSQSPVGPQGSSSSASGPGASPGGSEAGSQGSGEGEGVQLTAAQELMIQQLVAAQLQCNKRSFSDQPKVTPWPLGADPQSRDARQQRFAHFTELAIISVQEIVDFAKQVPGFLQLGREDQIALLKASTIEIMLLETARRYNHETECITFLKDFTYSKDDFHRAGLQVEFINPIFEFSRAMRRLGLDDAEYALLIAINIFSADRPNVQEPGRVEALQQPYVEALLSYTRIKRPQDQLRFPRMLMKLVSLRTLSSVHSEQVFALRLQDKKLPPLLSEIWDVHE
T1 sequence (P19793 1-462 partner): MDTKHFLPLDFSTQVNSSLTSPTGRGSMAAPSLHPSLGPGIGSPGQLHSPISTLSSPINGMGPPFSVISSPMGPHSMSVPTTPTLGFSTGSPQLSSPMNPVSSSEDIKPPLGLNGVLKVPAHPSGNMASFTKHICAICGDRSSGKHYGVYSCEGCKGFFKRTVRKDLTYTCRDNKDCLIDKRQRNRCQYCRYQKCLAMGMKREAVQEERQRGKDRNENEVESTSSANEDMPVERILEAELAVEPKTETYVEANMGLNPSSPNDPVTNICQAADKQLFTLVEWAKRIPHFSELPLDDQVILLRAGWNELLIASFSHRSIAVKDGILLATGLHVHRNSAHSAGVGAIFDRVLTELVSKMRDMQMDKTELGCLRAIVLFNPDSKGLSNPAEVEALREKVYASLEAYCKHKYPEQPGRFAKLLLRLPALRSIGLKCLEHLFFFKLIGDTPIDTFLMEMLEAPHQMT
Assay: Co-transfection assay (LXRE luciferase reporter), LXRβ
Format: cell-based
Parameters: % Efficacy: concentration or dose not given beside the values
Settings: for EC50: CV-1 cells transfected with pCMX-hLXRβ and LXREx1-Tk-Luciferase, 20 hours incubation; for Emax: read-out: % Efficacy
How it was run: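 CV-1 cells transiently co-transfected with full-length human LXRβ expression plasmid, LXREx1-Tk-luciferase reporter and β-galactosidase control, then exposed to compound for 20 h at 37 °C. Luciferase luminescence read; EC50 from 11-point, ½-log dose–response fit, efficacy relative to high-control agonist maximum.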

[1] = LXRβ co-transfection, relative to high control 1-(2,4-difluorobenzyl)-2-oxo-6-(4-phenoxyphenyl)-4-(trifluoromethyl)-1,2-dihydropyridine-3-carbonitrile

EC50 [nM] | Emax [1] [%] | % Efficacy [1] [%] | Structure (SMILES)
16 | 75 |  | Cc1nc(C(F)(F)F)cn1-c1ccc(-c2cc(F)c(CO)c(S(C)(=O)=O)c2)cc1-c1nc(C(C)C)oc1-c1ccc(OC(F)(F)F)cc1 [Example 560, (3-fluoro-3′-(2-isopropyl-5-(4-(trifluoromethoxy)phenyl)oxazol-4-yl)-4′-(2-methyl-4-(trifluoromethyl)-1H-imidazol-1-yl)-5-(methylsulfonyl)-[1,1′-biphenyl]-4-yl)methanol]
30 | 74 |  | Cc1nc(C(F)(F)F)cn1-c1ccc(-c2cc(F)c(CO)c(S(C)(=O)=O)c2)cc1-c1oc(C(C)C)nc1-c1ccc(OC(F)(F)F)cc1 [Example 601, {3-fluoro-3′-[2-(1-methylethyl)-4-{4-[(trifluoromethyl)oxy]phenyl}-1,3-oxazol-5-yl]-5-(methylsulfonyl)-4′-[2-methyl-4-(trifluoromethyl)-1H-imidazol-1-yl]biphenyl-4-yl}methanol]
25 | 87 |  | CCCc1nc(-c2ccc(OC(F)(F)F)cc2)c(-c2cc(-c3cccc(S(C)(=O)=O)c3)ccc2-n2cc(C(F)(F)F)nc2C)o1 [Example 602, 5-{3′-(methylsulfonyl)-4-[2-methyl-4-(trifluoromethyl)-1H-imidazol-1-yl]biphenyl-3-yl}-2-propyl-4-{4-[(trifluoromethyl)oxy]phenyl}-1,3-oxazole]

More lines, now with the values behind:

Structure (SMILES) | EC50 [nM] | Emax [1] [%] | % Efficacy [1] [%]
Cc1nc(C(F)(F)F)c(Cl)n1-c1ccc(-c2cc(F)c(CO)c(S(C)(=O)=O)c2)cc1-n1nncc1-c1ccc(OC(F)(F)F)cc1 [Example 1, {4′-[5-chloro-2-methyl-4-(trifluoromethyl)-1H-imidazol-1-yl]-3-fluoro-5-(methylsulfonyl)-3′-(5-{4-[(trifluoromethyl)oxy]phenyl}-1H-1,2,3-triazol-1-yl)biphenyl-4-yl}methanol] | 40 | 116 | 
Cc1nc(-c2cc(-c3cc(F)c(CO)c(S(C)(=O)=O)c3)ccc2-n2cc(C(C)O)nc2C)c(-c2ccc3c(c2)OC(F)(F)O3)o1 (single isomer, unassigned) [Example 516, 1-(1-(3-(5-(2,2-difluorobenzo[d][1,3]dioxol-5-yl)-2-methyloxazol-4-yl)-3′-fluoro-4′-(hydroxymethyl)-5′-(methylsulfonyl)-[1,1′-biphenyl]-4-yl)-2-methyl-1H-imidazol-4-yl)ethanol] | 270 |  | 41
Cc1nc(C(F)F)c(Cl)n1-c1ccc(-c2cccc(S(C)(=O)=O)c2)cc1-n1nncc1-c1ccc(OC(F)(F)F)cc1 [Example 172, 1-{4-[5-chloro-4-(difluoromethyl)-2-methyl-1H-imidazol-1-yl]-3′-(methylsulfonyl)biphenyl-3-yl}-5-{4-[(trifluoromethyl)oxy]phenyl}-1H-1,2,3-triazole] | 1030 | 159 | 
Cc1nc(-c2cc(-c3cc(F)c(CO)c(S(C)(=O)=O)c3)ccc2-n2cc(C(F)(F)F)nc2C)c(-c2ccc3c(c2)OC(F)(F)O3)o1 [Example 494, (3′-(5-(2,2-difluorobenzo[d][1,3]dioxol-5-yl)-2-methyloxazol-4-yl)-3-fluoro-4′-(2-methyl-4-(trifluoromethyl)-1H-imidazol-1-yl)-5-(methylsulfonyl)biphenyl-4-yl)methanol] | 47 | 90 | 
CS(=O)(=O)c1cccc(-c2ccc(-n3cnc(C(F)(F)F)c3)c(-n3nncc3-c3ccc(Cl)cc3)c2)c1 [Example 13, 5-(4-chlorophenyl)-1-{3′-(methylsulfonyl)-4-[4-(trifluoromethyl)-1H-imidazol-1-yl]biphenyl-3-yl}-1H-1,2,3-triazole] | 957 | 74 | 
Cc1nc(C(F)(F)F)cn1-c1ccc(-c2cccc(S(C)(=O)=O)c2)cc1-n1nncc1-c1ccc(C(F)(F)F)cc1 [Example 62, 1-{3′-(methylsulfonyl)-4-[2-methyl-4-(trifluoromethyl)-1H-imidazol-1-yl]biphenyl-3-yl}-5-[4-(trifluoromethyl)phenyl]-1H-1,2,3-triazole] | 276 | 91 | 
